Reference: patent US20050049294A1, “Methods of using [3.2.0] heterocyclic compounds and analogs thereof” (priority 2003, published 2005)
Where “and” joins values, the source holds several entries; their conditions need not be identical. Equal entries are not always repeated. Where two headings read alike, the source gives them in different places.

What was measured:
[1] = tested on: p21 and p27 in HEK293 cells and HEK293 NF-κB/Luciferase reporter clone; assay: Western blot of cell cycle regulatory proteins p21 and p27; assay type: cell-based, human; details: various concentrations, preliminary results
Description: The ubiquitin-proteasome pathway is an essential proteolytic system involved in cell cycle control by regulating the degradation of cyclins and cyclin-dependent kinase (Cdk) inhibitors such as p21 and p27. Pagano, et al., Science 269:682 (1995), Kisselev, et al., Chem Biol 8:739 (2001), King, et al., Science 274:1652 (1996). Furthermore, p21 and p27 protein levels are increased in the presence of proteasome inhibitors. Fukuchi, et al., Biochim Biophys Acta 1451:206 (1999), Takeuchi, et al., Jpn J Cancer Res 93:774 (2002).
The Western blots presented in FIG. 33 were reprobed using antibodies against p21 and p27 to determine the endogenous level of each protein and anti-Tubulin antibody was used to confirm equal loading of protein.

[2] = tested on: SK-MEL-28 melanoma cells; assay: NCI screen, SK-MEL-28; assay type: cell-based; details: Homo sapiens, SK-MEL-28, read-out: LC50
Procedure: A detailed description of the screening procedure can be found at hypertext transfer protocol (http://) “dtp.nci.nih.gov/branches/btb/ivclsp.html.”
In brief, each of the 60 human tumor cell lines were grown in RPMI 1640 medium, supplemented with 5% fetal bovine serum and 2 mM L-glutamine. Cells were plated at their appropriate density in 96-well microtiter plates and incubated at 37° C., 5% CO2, 95% air and 100% relative humidity. […] Cells were incubated for an additional 48 hours and a sulforhodamine B protein assay was used to estimate cell viability or growth.

[3] = tested on: DU 145 cells; assay: Cell growth inhibition (resazurin, 48 hours), DU 145; assay type: cell-based, human; details: for EC50: read-out: EC50 (nM), mean ± SD
[4] = tested on: HEK293 cells; assay: Cell growth inhibition (resazurin, 48 hours), HEK293; assay type: cell-based; details: Table 2, HEK293, human embryonic kidney, read-out: EC50 (nM), mean ± SD
[5] = tested on: RPMI 8226 cells; assay: Cell growth inhibition (resazurin, 48 hours), RPMI 8226
[6] = tested on: HL-60/MX2 cells; assay: cells; details: for Fold change: ratio of EC50 values (HL-60/MX2:HL-60)
Description: The DNA binding agent Mitoxantrone was included as a control, as HL-60/MX2 cells are reported to be resistant to this chemotherapeutic agent (Harker W. G. et al. 1989).

[7] = biological target: CYP1A2 (Homo sapiens, UniProt P05177); assay: Preliminary P450 inhibition screen, CYP1A2
Chain of CYP1A2 (P05177 whole entry): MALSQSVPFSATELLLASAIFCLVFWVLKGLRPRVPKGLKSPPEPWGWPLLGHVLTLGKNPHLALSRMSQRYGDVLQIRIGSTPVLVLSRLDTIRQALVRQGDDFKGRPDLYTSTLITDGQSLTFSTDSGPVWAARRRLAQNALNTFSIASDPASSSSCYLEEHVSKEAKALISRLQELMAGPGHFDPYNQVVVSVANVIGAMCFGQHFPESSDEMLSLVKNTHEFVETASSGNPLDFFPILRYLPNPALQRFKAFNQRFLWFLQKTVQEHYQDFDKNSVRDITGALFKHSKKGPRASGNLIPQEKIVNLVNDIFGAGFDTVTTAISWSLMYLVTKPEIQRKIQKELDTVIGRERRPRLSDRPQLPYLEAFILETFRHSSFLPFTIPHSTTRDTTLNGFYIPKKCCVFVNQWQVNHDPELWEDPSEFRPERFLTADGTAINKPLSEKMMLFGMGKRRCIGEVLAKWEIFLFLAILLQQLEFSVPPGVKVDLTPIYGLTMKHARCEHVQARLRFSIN
Description: (§1) These studies consisted of solubility assessment, LogD^7.4 determination and a preliminary screen to detect cytochrome P450 enzyme inhibition.

[8] = biological target: CYP3A4 (Homo sapiens, UniProt P08684); assay: Preliminary P450 inhibition screen, CYP3A4
Chain of CYP3A4 (P08684 whole entry): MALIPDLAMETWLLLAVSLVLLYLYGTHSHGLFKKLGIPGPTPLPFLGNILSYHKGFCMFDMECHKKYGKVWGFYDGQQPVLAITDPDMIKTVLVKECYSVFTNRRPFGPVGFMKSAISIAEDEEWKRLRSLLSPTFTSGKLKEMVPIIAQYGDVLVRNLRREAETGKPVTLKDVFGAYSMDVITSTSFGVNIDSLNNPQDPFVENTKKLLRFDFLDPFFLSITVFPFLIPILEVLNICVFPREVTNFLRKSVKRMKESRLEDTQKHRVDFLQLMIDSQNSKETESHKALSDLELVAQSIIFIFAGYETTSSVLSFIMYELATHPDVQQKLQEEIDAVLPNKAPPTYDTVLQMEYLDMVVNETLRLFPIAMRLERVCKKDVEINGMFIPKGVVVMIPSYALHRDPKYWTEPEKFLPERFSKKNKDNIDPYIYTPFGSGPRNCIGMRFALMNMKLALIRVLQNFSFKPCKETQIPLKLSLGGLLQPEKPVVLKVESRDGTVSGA
Description: as §1

[9] = tested on: PARP and Pro-Caspase 3 cleavage in PC-3 cells; assay: Cleavage of PARP and Pro-Caspase 3 (western blot), PC-3; assay type: cell-based, human; details: 100 nM, 0, 8 or 24 hours
Procedure: Total protein lysates were made and 20 μg of the lysates were then resolved under reducing/denaturing conditions and blotted onto nitrocellulose. The blots were then probed with anti-PARP or anti-caspase 3 antibodies followed by stripping and reprobing with an anti-actin antibody.

[10] = biological target: T1, trypsin-like activity of purified rabbit 20S proteasomes (Oryctolagus cuniculus, UniProt G1SWK8); details: under the conditions tested
T1 sequence (G1SWK8 1-271): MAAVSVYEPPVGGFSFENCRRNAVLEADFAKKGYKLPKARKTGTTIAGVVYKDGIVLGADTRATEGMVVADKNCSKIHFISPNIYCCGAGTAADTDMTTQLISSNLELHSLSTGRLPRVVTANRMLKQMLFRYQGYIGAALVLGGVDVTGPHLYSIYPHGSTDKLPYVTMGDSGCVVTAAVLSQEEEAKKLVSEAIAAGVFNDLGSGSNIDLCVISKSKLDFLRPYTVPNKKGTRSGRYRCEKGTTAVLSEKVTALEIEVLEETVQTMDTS

[11] = biological target: T1, trypsin-like activity of purified rabbit 20S proteasomes; assay: biochemical
[12] = biological target: PGPH (caspase-like) activity of rabbit muscle 20S proteasomes (Oryctolagus cuniculus, UniProt A0A5F9DQW2); assay: Inhibition of caspase-like (PGPH) activity of 20S proteasome (Z-LLE-AMC); assay type: biochemical; details: Table 3; mean EC50; purified rabbit 20S proteasomes
Chain of PGPH (caspase-like) activity of rabbit muscle 20S proteasomes (A0A5F9DQW2 1-212): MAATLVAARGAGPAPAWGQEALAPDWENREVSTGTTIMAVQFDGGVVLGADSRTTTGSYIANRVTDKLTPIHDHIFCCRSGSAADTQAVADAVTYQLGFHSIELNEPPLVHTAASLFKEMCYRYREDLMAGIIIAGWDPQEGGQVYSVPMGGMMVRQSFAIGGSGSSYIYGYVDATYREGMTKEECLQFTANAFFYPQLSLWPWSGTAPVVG
Procedure: A commercially available fluorogenic substrate specific for the PGPH activity was used instead of the chymotrypsin substrate supplied in the proteasome assay kit described above.
The substrate Z-LLE-AMC was prepared as a 20 mM stock solution in DMSO, stored at −20° C. The source of the proteasomes was the commercially available kit from Calbiochem (Cat. #539158). As with the chymotrypsin substrate, the proteasome can cleave Z-LLE-AMC into Z-LLE and free AMC. The activity can then be determined by measuring the fluorescence of the released AMC (λex=390 nm and λem=460 nm). The proteasomes were activated with SDS and held on ice as per manufacturer's recommendation. […] The series was diluted 20-fold with assay buffer and preincubated with the proteasomes as described for the chymotrypsin-like activity. After addition of substrate, the samples were incubated at 37° C., and release of the fluorescent AMC was monitored in a fluorimeter. All data were collected and plotted as the mean of triplicate points. […] As before, the model chosen was a sigmoidal dose-response, with a variable slope.

[13] = Homo sapiens, RPMI-8226, Table 13, RPMI 8226
[14] = Homo sapiens, RPMI-8226, read-out: RPMI 8226 EC50 (nM), Table 15, mean EC50
[15] = Homo sapiens, HL60/MX2, read-out: EC50 (nM) HL-60/MX2, Table 17
[16] = read-out: EC50 (nM) HL-60/MX2, Table 17

For `C[C@@]12OC(=O)[C@]1([C@@H](O)[C@@H]1C=CCCC1)NC(=O)[C@@H]2CCCl` [Formula II-16, Salinosporamide A], the “p21 and p27 protein levels” value [1] was “elevated”, the CC50 [2] was less than 10 nM and the EC50 ([3]; Homo sapiens, Table 6, DU 145 (n = 3)) was 37 ± 10 nM. The EC50 ([3]; Table 2, DU 145, human prostate carcinoma, 48 hours) was 37 ± 10 nM, the “% cytotoxicity, mean ± SD” value ([3]; Table 6, DU 145 (n = 3)) was 75 ± 4% and the EC50 [4] was 47 nM. For the same compound, the EC50 ([5]; Homo sapiens, RPMI-8226, 48 h, read-out: EC50 (nM), mean ± SD) was 8.6 ± 1.9 nM, the EC50 ([5]; Homo sapiens, RPMI-8226, read-out: EC50 (nM), mean ± SD) was 10 ± 3 nM and the “% cytotoxicity, mean ± SD” value ([5]; Table 6, RPMI 8226 (n = 5)) was 94 ± 1%. The “% cytotoxicity, mean ± SD” value ([5]; Table 9, RPMI 8226, 48 hour) was 94 ± 0%, the EC50 ([6]; Homo sapiens, HL60/MX2, Table 8, HL-60/MX2) was 28 nM and the “% cytotoxicity” value ([6]; Table 8, HL-60/MX2) was 84% and 89%. For the same compound, the EC50 ([6]; Table 8, HL-60/MX2) was 25 nM, the inhibition at 10 µM [7] was 3% and the inhibition at 10 µM [8] was 6%. For the same compound, the “cleavage of PARP” value [9] was “noticeable at 24 hours”, the “cleavage of Pro-Caspase 3” value [9] was “not detected” and the “inhibit the trypsin-like activity of the 20S proteasome” value (“inhibit the trypsin-like activity” below) [10] was “able to inhibit”.
For `C[C@@]12OC(=O)[C@]1([C@@H](O)C1CCCCC1)NC(=O)[C@@H]2CCBr` [Formula II-4], the EC50 [5, 13] was 57 nM, the EC50 [5, 14] was 54 nM and the EC50 [6, 15] was 103 nM. For the same compound, the Fold change ([6]; Table 17) was 0.8 fold, the EC50 [6, 16] was 97 nM and the “inhibit the trypsin-like activity” value [10] was “able to inhibit”. The EC50 [11] was 109 nM.
For `C[C@@]12OC(=O)[C@]1([C@@H](O)C1CCCCC1)NC(=O)[C@@H]2CCCl` [Formula II-2], the EC50 [12] was 1500 nM, the EC50 [5, 13] was 49 nM and the EC50 [5, 14] was 47 nM. For the same compound, the EC50 ([5]; Table 13, RPMI 8226) was 45 nM, the EC50 [6, 15] was 142 nM and the Fold change ([6]; Table 17) was 0.7 fold. For the same compound, the EC50 [6, 16] was 133 nM, the “inhibit the trypsin-like activity” value [10] was “able to inhibit” and the EC50 [11] was 230 nM.
`C[C@@]12OC(=O)[C@]1([C@@H](O)[C@@H]1C=CCCC1)NC(=O)[C@@H]2CCBr` [Formula II-18] was tested, and the EC50 [12] was 250 nM, the EC50 ([5]; Homo sapiens, RPMI-8226, 48 h, read-out: EC50, μM (mean ± SD), Table 9, RPMI 8226, 48 hour) was 17 nM and the EC50 [5, 13] was 6.3 nM. For the same compound, the EC50 [5, 14] was 6.3 nM, the “% cytotoxicity, mean ± SD” value ([5]; Table 9, RPMI 8226, 48 hour) was 94, 94% and the EC50 ([5]; read-out: EC50, μM (mean ± SD), Table 9, RPMI 8226, 48 hour) was 22 nM. For the same compound, the EC50 [6, 15] was 19 nM, the Fold change ([6]; Table 17) was 0.7 fold and the EC50 [6, 16] was 18 nM. For the same compound, the “inhibit the trypsin-like activity” value [10] was “able to inhibit” and the EC50 [11] was 14 nM.
